Here are results for 1 compound from patent US20210340178A1, “NONAPEPTIDE PREVENTING INCREASED HYPERPERMEABILITY OF VASCULAR ENDOTHELIUM” (FEDERALNOYE GOSUDARSTVENNOE BUDGETNOE UCHREZHDENIE …, priority 2018, published 2021).

Entries after “also recorded” stand apart in the source; their conditions may differ. Non-standard residues stand in square brackets, D forms with d. Residues, ends and D or L forms follow the SMILES beside them.

In this assay the test system is myosin regulatory light chain (RLC) phosphorylation in EA.hy926 endothelial cells. The assay is described as follows: Thrombin-induced myosin RLC phosphorylation in endothelial cells (immunoblotting). In kind it is cell-based. The conditions noted are these: peptide 100 μM, 1 hr; thrombin 100 nM, 20 min. On the procedure:
FIG. 4. Inhibition of the thrombin-induced RLC phosphorylation in EA.hy926 endothelial cells by PIK2, PIK7 ([D-Lys^12]-MLC11-19), or MLC11-19 MLCK peptide inhibitors. Inhibitors were added up to 100 μM, n=3-5. p<0.05 for PIK2, PIK7 vs control (0, 20 min). p<0.05 for PIK2 vs PIK7 (0, 20 min).
Inhibitory effects of the claimed peptide (PIK7), its prototype (PIK2), and analogue (MLC11-19) were compared in an assay of myosin regulatory light chain (RLC) phosphorylation in vitro as described in Example 4.
Antagonistic effects of MLCK peptide inhibitors on the thrombin-mediated RLC phosphorylation in EA.hy926 endothelial cells were tested as follows. The cells were grown in 35-mm dishes in DMEM at 37° C. and the 5% CO2 atmosphere until the monolayer formed. Then, the cells were serum-starved while simultaneously incubated with 100 μM MLCK inhibitors at 37° C., 5% CO2 for 1 hr (control, 0 min). Next, the cells were stimulated with 100 nM thrombin for 20 min and collected on ice, i.e. the medium was decanted, the cells were washed with cold PBS and lysed with 100 μL of Laemmli denaturing electrophoresis buffer. The sample proteins were separated by SDS-PAGE and proceeded to immunoblotting with anti-total, anti-monophosphorylated, and anti-diphosphorylated RLC. […]

For the compound `C[C@H](NC(=O)[C@H](C)NC(=O)[C@H](CCCNC(=N)N)NC(=O)[C@@H](CCCCN)NC(=O)[C@@H](N)CCCCN)C(=O)N[C@@H](CCCNC(=N)N)C(=O)N[C@@H](C)C(=O)N[C@H](C(=O)N[C@@H](CO)C(N)=O)[C@@H](C)O` [PIK7, H-Lys-D-Lys-Arg-Ala-Ala-Arg-Ala-Thr-Ser-NH2] (H-K[dK]RAARATS-NH2), the “inhibition of thrombin-induced RLC phosphorylation” value is “inhibited myosin RLC phosphorylation in endothelial cells with efficacy higher than that of either the prototype, PIK2, or the analogue, MLC11-19; also recorded: inhibits RLC phosphorylation in endothelial cells and its efficacy is superior to both the prototype, PIK2, and the analogue, MLC11-19”.
